Source: publication PMC6154586 (Molecules : A Journal of Synthetic Chemistry and Natural …, 2017)

How the values were obtained:
Assay type in all cases: cell-based
Conditions in all cases: human
[1] = in vitro cytotoxicity bioassay, HepG2
Experimental: (§1) These two experiments were conducted according to reference procedures.

[2] = in vitro cytotoxicity bioassay, PC-3
Experimental: as §1

[3] = in vitro cytotoxicity bioassay, MCF-7
Experimental: as §1

[4] = in vitro cytotoxicity bioassay, MDA-MB-435
Experimental: as §1

[5] = HepG2 cells (hepatoma cell line)
[6] = PC-3 cells (prostatic cancer cell line)
[7] = MCF-7 cells (breast cancer cell line)
[8] = MDA-MB-435 cells (breast cancer cell line)

Measured: IC50

C=C1[C@@]2(C)CC3=C(C)[C@]4(C=CC(=O)OC4(C)C)CC[C@]3(C)[C@@]13C(=O)O[C@H](C)[C@@]3(O)C2=O [Compound 3, isoaustinol]
> 50 µM: [1]; HepG2 | [2]; PC-3 | [3]; MCF-7 | [4]; MDA-MB-435

C=C1[C@@]23C(=O)O[C@H](C)[C@]24O[C@@]2(C(=C)[C@]5(C=CC(=O)OC5(C)C)CC[C@]32C)[C@H](O)[C@@]1(C)OC4=O [Compound 8, dehydroaustinol]
> 50 µM: [1]; HepG2 | [2]; PC-3 | [3]; MCF-7 | [4]; MDA-MB-435

C=C1[C@@]23C(=O)O[C@H](C)[C@@]2(O)C(=O)O[C@]1(C)[C@@H](OC(C)=O)C1=C(C)[C@]2(C=CC(=O)OC2(C)C)CC[C@@]13C [Compound 4, austin]
> 50 µM: [1]; HepG2 | [2]; PC-3 | [3]; MCF-7 | [4]; MDA-MB-435

C=C1[C@@]23C(=O)O[C@H](C)[C@@]2(O)C(=O)O[C@]1(C)[C@@H](O)C1=C(C)[C@]2(C=CC(=O)OC2(C)C)CC[C@@]13C [Compound 5, austinol]
> 50 µM: [1]; [5] | [2]; [6] | [3]; [7] | [4]; [8]

C=C1[C@@]2(C)C[C@H]3[C@]4(C)C=CC(=O)OC(C)(C)[C@H]4CC[C@]3(C)[C@]1(C(=O)OC)C(=O)[C@@](C)(O)C2=O [Compound 9, preaustinoid A2]
> 50 µM: [1]; [5] | [2]; [6] | [3]; [7] | [4]; [8]

C=C1C2(CC(O)C(=O)OC2(C)C)CC(OC(C)=O)C2(C)C13OC14C(=O)OC(C)(C(=C)C12C(=O)OC4C)C3OC(C)=O (stereo not shown) [Compound 1, 2-hydroacetoxydehydroaustin]
> 50 µM: [1]; [5] | [2]; [6] | [3]; [7] | [4]; [8]

C=C1[C@@]23C(=O)O[C@H](C)[C@]24O[C@@]2(C(=C)[C@]5(C=CC(=O)OC5(C)C)C[C@@H](OC(C)=O)[C@]32C)[C@H](OC(C)=O)[C@@]1(C)OC4=O [Compound 6, acetoxydehydroaustin]
> 50 µM: [1]; HepG2 | [2]; PC-3 | [3]; MCF-7 | [4]; MDA-MB-435

C=C1[C@]2(C)C(=O)[C@]3(O)[C@@H](C)OC(=O)[C@]13[C@@]1(C)CC[C@@]3(C=CC(=O)OC3(C)C)C(C)=C1[C@@H]2OC(C)=O [Compound 2, 11-acetoxyisoaustinone]
> 50 µM: [1]; [5] | [2]; [6] | [3]; [7] | [4]; [8]

C=C1[C@@]23C(=O)O[C@H](C)[C@]24O[C@@]2(C(=C)[C@]5(CCC(=O)OC5(C)C)C[C@@H](OC(C)=O)[C@]32C)[C@H](OC(C)=O)[C@@]1(C)OC4=O [Compound 10, 1,2-dihydro-acetoxydehydroaustin B]
> 50 µM: [1]; [5] | [2]; [6] | [3]; [7] | [4]; [8]

C=C1[C@@]23C(=O)O[C@H](C)[C@]24O[C@@]2(C(=C)[C@]5(C=CC(=O)OC5(C)C)CC[C@]32C)[C@H](OC(C)=O)[C@@]1(C)OC4=O [Compound 7, dehydroaustin]
> 50 µM: [1]; HepG2 | [2]; PC-3 | [3]; MCF-7 | [4]; MDA-MB-435
